Measured values from US7175853B1, “Therapeutic system which can be moisture-activated” (LTS Lohmann Therapie-Systeme AG, priority 1998, dated 2007).

Assay: Dehydration behaviour of activators by Difference Scanning Calorimetry (DSC)
Assay type: physicochemical
Conditions: FIG. 14a-c
Excerpt: The dehydration behaviour of these substances was examined in three example substances by Difference Scanning Calorimetry (DSC). This thermal analysis provides information on the stages of dehydration taking place under energy absorption, and on the respective typical temperature.

O.O.O.O.O.O=[Si]([O-])[O-].[Na+].[Na+] [Na2SiO3.5H2O, sodium metasilicate pentahydrate] gave a dehydration temperature of 86.5 °C.
